Measurements reported in patent publication US10501518B2 (priority 2013, dated 2019).
Like-named read-outs stand apart in the source and are kept apart here. Non-standard residues stand in square brackets, D forms with d. Residues, ends and D or L forms follow the SMILES beside them. No end group written: not given here. β3hW = N[C@H](CC(=O)O)Cc1c[nH]c2ccccc12; β3hE = N[C@@H](CCC(=O)O)CC(=O)O; β3hF = N[C@H](CC(=O)O)Cc1ccccc1; β3hN = NC(=O)C[C@H](N)CC(=O)O; β3hK = NCCCC[C@H](N)CC(=O)O; β3hM = CSCC[C@H](N)CC(=O)O; β3hD = NC(CC(=O)O)CC(=O)O

What was measured:
PTHR1 = target: T1, PTHR1 (Homo sapiens, UniProt Q03431); assay: Inhibition of PTH-induced PTHR1 cAMP signaling by bPTH(7-34) analogs; settings: Table 18; [Inhibitor] = 1 μM
T1 sequence (Q03431 27-593): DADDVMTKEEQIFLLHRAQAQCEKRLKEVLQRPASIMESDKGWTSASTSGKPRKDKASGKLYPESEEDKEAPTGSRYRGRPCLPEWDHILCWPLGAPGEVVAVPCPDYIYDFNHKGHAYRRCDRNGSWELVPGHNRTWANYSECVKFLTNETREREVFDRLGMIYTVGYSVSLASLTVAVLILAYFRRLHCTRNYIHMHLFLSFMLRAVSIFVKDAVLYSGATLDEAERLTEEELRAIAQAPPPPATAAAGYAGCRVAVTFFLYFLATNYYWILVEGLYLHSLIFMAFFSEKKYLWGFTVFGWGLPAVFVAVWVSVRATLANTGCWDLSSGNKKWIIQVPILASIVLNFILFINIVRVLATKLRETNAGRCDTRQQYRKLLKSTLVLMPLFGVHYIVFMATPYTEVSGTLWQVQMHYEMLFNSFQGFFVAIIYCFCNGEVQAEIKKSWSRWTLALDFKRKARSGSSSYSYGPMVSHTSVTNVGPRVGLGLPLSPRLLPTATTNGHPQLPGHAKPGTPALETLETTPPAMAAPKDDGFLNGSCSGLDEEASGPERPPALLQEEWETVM

RG form of rat PTHR-1 = target: T2, RG form of rat PTHR-1 (Rattus norvegicus, UniProt P25961); assay: Radio-ligand competition binding to RG form of rat PTHR-1; settings: Table 5; rat PTHR-1; mean ± SEM; read-out: RG -log (IC50) (converted)
T2 construct: expressed in transfected cells; host or cells: COS-7
T2 sequence (P25961 27-591): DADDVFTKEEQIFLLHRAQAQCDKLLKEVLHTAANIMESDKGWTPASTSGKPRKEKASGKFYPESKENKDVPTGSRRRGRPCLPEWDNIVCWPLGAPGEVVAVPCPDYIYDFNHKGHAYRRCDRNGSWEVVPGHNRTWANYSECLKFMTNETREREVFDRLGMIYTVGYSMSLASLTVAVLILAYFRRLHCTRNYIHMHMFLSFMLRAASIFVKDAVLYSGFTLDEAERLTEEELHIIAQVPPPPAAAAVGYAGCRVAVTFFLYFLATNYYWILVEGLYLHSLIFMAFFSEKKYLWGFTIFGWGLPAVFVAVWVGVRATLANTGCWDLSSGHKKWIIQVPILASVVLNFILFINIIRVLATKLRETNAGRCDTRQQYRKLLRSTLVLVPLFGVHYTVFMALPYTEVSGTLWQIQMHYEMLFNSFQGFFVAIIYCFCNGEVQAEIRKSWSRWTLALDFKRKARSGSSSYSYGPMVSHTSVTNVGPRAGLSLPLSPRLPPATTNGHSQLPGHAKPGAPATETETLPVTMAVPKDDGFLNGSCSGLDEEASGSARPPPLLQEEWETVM
Source text: (§1) Data are means (±SEM) of n≥4 experiments, each performed in duplicate.

WT human PTHR-1 = target: T3, WT human PTHR-1 (Homo sapiens, UniProt Q03431); assay: cAMP GloSensor dose-response in GP-2.3 cells expressing human PTHR-1; format: cell-based; settings: for cAMP (hPTHR-1) Max: luminescence counts per second relative to PTH(1-34); for cAMP (hPTHR-1) Max / Max: 12-16 minutes after ligand addition; for Max: mean ± SEM
T3 construct: bioactivity of the resulting compound in full-length hPTHR-1 and a truncated version; expressed in transfected cells
T3 sequence (Q03431 27-593): T1 sequence (Q03431 27-593)
How it was run: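 Confluent cells preloaded with 0.5 mM d-luciferin at room temperature until luminescence baseline stabilised (30 min), then given varying agonist concentrations. Luminescence time course recorded after α/β-peptide addition. Means ±SEM of n>4 experiments, each in duplicate.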

WT rat PTHR-1 = target: T4, WT rat PTHR-1 (Rattus norvegicus, UniProt P25961); assay: cAMP GloSensor dose-response in GR-35 cells expressing rat PTHR-1; format: cell-based; settings: Table 7; for Max: 12-16 minutes after ligand addition, mean ± SEM
T4 construct: expressed in transfected cells
T4 sequence (P25961 27-591): T2 sequence (P25961 27-591)
Experimental: FIGS. 9A, 9B, and 9C constitute a series of graphs depicting cAMP responses in GR-35 cells expressing rat PTHR-1-WT. […] Data are means (±SEM) of n>4 experiments, each performed in duplicate.
For cAMP dose-response assays, monolayers of confluent HEK 293 cells were pre-incubated with buffer containing d-luciferin (0.5 mM) in 96 well plates at room temperature until a stable baseline level of luminescence was established (30 min). Varying concentrations of agonist were then added, and the time course of luminescence response was recorded using a Perkin Elmer plate reader following α/β-peptide addition.

RG form of human PTHR-1 = target: T5, RG form of human PTHR-1 (Homo sapiens, UniProt Q03431); assay: Radio-ligand competition binding to RG form of human PTHR-1 (COS-7 membranes, 125I-M-PTH(1-15) tracer, high affinity Gαs mutant)
T5 construct: expressed in transfected cells; host or cells: COS-7
T5 sequence (Q03431 27-593): T1 sequence (Q03431 27-593)
Source text: as §1

R^0 form of human PTHR-1 = target: T6, R^0 form of human PTHR-1 (Homo sapiens, UniProt Q03431); assay: Radio-ligand competition binding to R^0 form of human PTHR-1 (COS-7 membranes, 125I-PTH(1-34) tracer, GTPγS)
T6 construct: expressed in transfected cells; host or cells: COS-7
T6 sequence (Q03431 27-593): T1 sequence (Q03431 27-593)
Source text: as §1

R^0 form of rat PTHR-1 = target: T7, R^0 form of rat PTHR-1 (Rattus norvegicus, UniProt P25961); assay: Radio-ligand competition binding to R^0 form of rat PTHR-1; settings: Table 5; ratio of R^0 to RG IC50, rat PTHR-1
T7 construct: expressed in transfected cells; host or cells: COS-7
T7 sequence (P25961 27-591): T2 sequence (P25961 27-591)
Source text: as §1

| Compound | EC50(+)inhibitor/EC50(−)inhibitor (PTHR1) | cAMP (hPTHR-1) Max (WT human PTHR-1; Table 1) | Max (WT human PTHR-1; Table 6, GP-2.3 cells) | Max (WT rat PTHR-1; GR-35 cells) | other results |
| --- | --- | --- | --- | --- | --- |
| LMHNLGKHLNSMERVEWLRKKLQDVHNF-NH2 [hPTH(7-34), reference compound] | 1.60 |  |  |  |  |
| CC[C@H](C)[C@H](NC(=O)[C@H](CCC(=O)O)NC(=O)[C@H](CO)NC(=O)[C@@H](NC(=O)[C@@H](N)CO)C(C)C)C(=O)N[C@@H](CCC(N)=O)C(=O)N[C@@H](CC(C)C)C(=O)N[C@@H](CCSC)C(=O)N[C@@H](Cc1c[nH]cn1)C(=O)N[C@@H](CC(N)=O)C(=O)N[C@@H](CC(C)C)C(=O)NCC(=O)N[C@@H](CCCCN)C(=O)N[C@@H](Cc1c[nH]cn1)C(=O)N[C@@H](CC(C)C)C(=O)N[C@@H](CC(N)=O)C(=O)N[C@@H](CO)C(=O)N[C@@H](CCSC)CC(=O)N[C@@H](CCC(=O)O)C(=O)N[C@@H](CCCNC(=N)N)C(=O)N[C@H](C(=O)N[C@@H](CCC(=O)O)CC(=O)N[C@@H](Cc1c[nH]c2ccccc12)C(=O)N[C@@H](CC(C)C)C(=O)N[C@@H](CCCNC(=N)N)C(=O)N[C@@H](CCCCN)CC(=O)N[C@@H](CCCCN)C(=O)N[C@@H](CC(C)C)C(=O)N[C@@H](CCC(N)=O)C(=O)N[C@@H](CC(=O)O)CC(=O)N[C@H](C(=O)N[C@@H](Cc1c[nH]cn1)C(=O)N[C@@H](CC(N)=O)C(=O)N[C@H](CC(N)=O)Cc1ccccc1)C(C)C)C(C)C [D5] |  | 1.03 | 223 ± 36 luminescence counts per second × 10^−3 | 43 ± 17 luminescence counts per second × 10−3 | IC50 (RG form of rat PTHR-1): 1.74 nM |
| FMHNLWKWLSSMERVEWLRKKLQDVHNF-NH2 [D6 bPTH(7-34) dTrp12] | 16.49 |  |  |  |  |
| CC[C@H](C)[C@H](NC(=O)[C@H](CCC(=O)O)NC(=O)[C@H](CO)NC(=O)[C@@H](NC(=O)[C@@H](N)CO)C(C)C)C(=O)N[C@@H](CCC(N)=O)C(=O)N[C@@H](CC(C)C)C(=O)N[C@@H](CCSC)C(=O)N[C@@H](Cc1c[nH]cn1)C(=O)N[C@@H](CC(N)=O)C(=O)N[C@@H](CC(C)C)C(=O)NCC(=O)N[C@@H](CCCCN)C(=O)N[C@@H](Cc1c[nH]cn1)C(=O)N[C@@H](CC(C)C)C(=O)N[C@@H](CC(N)=O)C(=O)N[C@@H](CO)CC(=O)N[C@@H](CCSC)C(=O)N[C@@H](CCC(=O)O)C(=O)N[C@@H](CCCNC(=N)N)C(=O)N[C@H](CC(=O)N[C@@H](CCC(=O)O)C(=O)N[C@@H](Cc1c[nH]c2ccccc12)C(=O)N[C@@H](CC(C)C)C(=O)N[C@@H](CCCNC(=N)N)CC(=O)N[C@@H](CCCCN)C(=O)N[C@@H](CCCCN)C(=O)N[C@@H](CC(C)C)C(=O)N[C@@H](CCC(N)=O)CC(=O)N[C@@H](CC(=O)O)C(=O)N[C@H](C(=O)N[C@@H](Cc1c[nH]cn1)C(=O)N[C@@H](CC(N)=O)CC(=O)N[C@@H](Cc1ccccc1)C(N)=O)C(C)C)C(C)C [C5] |  | 1.01 | 219 ± 39 luminescence counts per second × 10^−3 | 48 ± 17 luminescence counts per second × 10−3 | IC50 (RG form of human PTHR-1; Table 1, 125I-M-PTH(1-15) tracer, Gαs mutant, read-out: RG IC50, nM, Binding (hPTHR-1)): 0.4 nM; EC50 (WT human PTHR-1; Table 1, GP-2.3 cells, read-out: cAMP (hPTHR-1) EC50): 0.2 nM |
| XMHNLWKWLSSMERVEWLRKKLQDVHNF-NH2 [D6 bPTH(7-34) dTrp12 ACPC7] | 4.38 |  |  |  |  |
| CC[C@H](C)[C@H](NC(=O)[C@H](CCC(=O)O)NC(=O)[C@H](CO)NC(=O)[C@@H](NC(=O)[C@@H](N)CO)C(C)C)C(=O)N[C@@H](CCC(N)=O)C(=O)N[C@@H](CC(C)C)C(=O)N[C@@H](CCSC)C(=O)N[C@@H](Cc1c[nH]cn1)C(=O)N[C@@H](CC(N)=O)CC(=O)N[C@@H](CC(C)C)C(=O)NCC(=O)N[C@@H](CCCCN)C(=O)N[C@H](CC(=O)N[C@@H](CC(C)C)C(=O)N[C@@H](CC(N)=O)C(=O)N[C@@H](CO)C(=O)N[C@@H](CCSC)CC(=O)N[C@@H](CCC(=O)O)C(=O)N[C@@H](CCCNC(=N)N)C(=O)N[C@H](C(=O)N[C@@H](CCC(=O)O)CC(=O)N[C@@H](Cc1c[nH]c2ccccc12)C(=O)N[C@@H](CC(C)C)C(=O)N[C@@H](CCCNC(=N)N)C(=O)N[C@@H](CCCCN)CC(=O)N[C@@H](CCCCN)C(=O)N[C@@H](CC(C)C)C(=O)N[C@@H](CCC(N)=O)C(=O)N[C@@H](CC(=O)O)CC(=O)N[C@H](C(=O)N[C@@H](Cc1c[nH]cn1)C(=O)N[C@@H](CC(N)=O)C(=O)N[C@H](CC(N)=O)Cc1ccccc1)C(C)C)C(C)C)Cc1c[nH]c2ccccc12 [D7] (H-SVSEIQLMH[β3hN]LGK[β3hW]LNS[β3hM]ERV[β3hE]WLR[β3hK]KLQ[β3hD]VHN[β3hF]-NH2) |  | 0.85 | 184 ± 18 luminescence counts per second × 10^−3 | 40 ± 18 luminescence counts per second × 10−3 | IC50 (R^0 form of human PTHR-1): 3.5 nM; R^0/RG (R^0 form of human PTHR-1; Table 4, ratio of R^0 to RG IC50, human PTHR-1): 15; IC50 (RG form of human PTHR-1): 0.24 nM; IC50 (RG form of human PTHR-1; Table 4, human PTHR-1, mean ± SEM, read-out: RG -log (IC50) (converted)): 0.234 nM; R^0/RG (R^0 form of rat PTHR-1): 7; IC50 (RG form of rat PTHR-1): 2.04 nM; EC50 (WT human PTHR-1): 0.39 nM; Fold nM PTH(1-34) (WT human PTHR-1; Table 6, EC50 relative to PTH(1-34)): 2.26; Fold nM PTH(1-34) (WT rat PTHR-1; EC50 relative to PTH(1-34)): 3.89; EC50 (WT rat PTHR-1; GR-35 cells, read-out: EC50): 1.62 nM |
| XMHNLWKXLSSXERVZWLRZKLQXVHNX-NH2 [FCycD6 bPTH(7-34) dTrp12 ACPC7] | 3.50 |  |  |  |  |
| FMHNLWKHLSSMERVEWLRKKLQDVHNF-NH2 [bPTH(7-34)dTrp12, reference compound] | 60.12 |  |  |  |  |
